Data from paper PMC6219668 (Oncotarget, 2018).
Where two headings read alike, the source gives them in different places.

How the values were obtained:
CDK4 = molecular target: T1, CDK4 (Homo sapiens, UniProt P11802); experiment: KINOMEscan binding assay; details: Supplementary Table 1A
T1 construct: purchased DiscoveRx (KINOMEscan)

JeKo-1 xenograft = type: in vivo; details: for tumor response: qd, po
[1] = type: in vivo
Pharmacokinetics in mice = type: in vivo; details: 75 mg/kg once daily, data not shown
HBRX1286 = type: in vivo; details: HBRX1286, Breast, TNBC, Rb absent; 250 mg/kg qd
HBCx-15 = type: in vivo; details: HBCx-15, Breast, TNBC, Rb absent; 125 mg/kg bid × 21
HBRX1600 = type: in vivo; details: HBRX1600, Breast, TNBC, Rb present; 250 mg/kg qd
Hs 944.T = type: in vivo; details: Melanoma
MEL-JUSO = type: in vivo; details: Melanoma
HPAX1317 = type: in vivo; details: HPAX1317, Pancreatic, Rb present; 250 mg/kg qd
MCF-7 = experiment: cells; type: cell-based; details: Homo sapiens, MCF7; MCF-7, 72 h
T-47d = experiment: cells; type: cell-based; details: Homo sapiens, T47D, 72 h
MGH051 = experiment: cells; type: cell-based; details: MGH051, 72 h
MGH049 = experiment: cells; type: cell-based; details: MGH049, 72 h
NCI-H1792 [2] = experiment: cells; type: cell-based; details: Homo sapiens, NCI-H1792, 72 h
COR-L105 = experiment: cells; type: cell-based; details: Homo sapiens, COR-L105, 72 h
NCI-H1975 = experiment: cells; type: cell-based; details: Homo sapiens, NCI-H1975, 72 h
NCI-H2030 = experiment: cells; type: cell-based; details: Homo sapiens, NCI-H2030, 72 h
NCI-H2228 [3] = experiment: cells; type: cell-based; details: Homo sapiens, NCI-H2228, 72 h
OE33 [4] = experiment: cells; type: cell-based; details: Homo sapiens, OE33, 72 h
TE-5 [5] = experiment: cells; type: cell-based; details: Homo sapiens, TE-5, 72 h
TE-11 = experiment: cells; type: cell-based; details: Homo sapiens, TE-11, 72 h
SK-MEL-28 = experiment: cells; type: cell-based; details: Homo sapiens, SK-MEL-28, 72 h
hs944T = experiment: cells; type: cell-based; details: 72 h
SK-MEL-5 = experiment: cells; type: cell-based; details: Homo sapiens, SK-MEL-5, 72 h
SK-N-SH = experiment: cells; type: cell-based; details: Homo sapiens, 72 h
CHP-212 = experiment: cells; type: cell-based; details: Homo sapiens, CHP-212, 72 h
BT-483 = experiment: cells; type: cell-based; details: Homo sapiens, BT-483, 72 h
NCI-H3122 = experiment: cells; type: cell-based; details: Homo sapiens, NCI-H3122, 72 h
NCI-H1792 [6] = experiment: cells; type: cell-based; details: Homo sapiens, NCI-H1792, 72 h; remark: listed apart in the source
HCC-4006 = experiment: cells; type: cell-based; details: Homo sapiens, HCC4006; HCC-4006, 72 h
NCI-H2228 [7] = experiment: cells; type: cell-based; details: Homo sapiens, NCI-H2228, 72 h; remark: listed apart in the source
OE33 [8] = experiment: cells; type: cell-based; details: Homo sapiens, OE33, 72 h; remark: listed apart in the source
TE-5 [9] = experiment: cells; type: cell-based; details: Homo sapiens, TE-5, 72 h; remark: listed apart in the source
TE-14 = experiment: cells; type: cell-based; details: TE-14, 72 h
VCAP = experiment: cells; type: cell-based; details: Homo sapiens, 72 h
UACC-62 = experiment: cells; type: cell-based; details: Homo sapiens, UACC-62, 72 h
CDK1/cyclin B = details: cited from earlier work
CDK5/p25 = details: cited from earlier work
NCI-H2009 = test system: NCI-H2009; set-up: method as in Brain C et al, manuscript in preparation; details: RB1-deleted lung adenocarcinoma line; up to 10 μM; ref Brain C et al, manuscript in preparation; cited from earlier work
[10] = test system: JeKo-1 mantle cell lymphoma cells; set-up: method as in Brain C et al, manuscript in preparation; details: RB1-proficient; ref Brain C et al, manuscript in preparation; cited from earlier work
in vivo = details: male, rat, po

T1 sequence (P11802 whole entry): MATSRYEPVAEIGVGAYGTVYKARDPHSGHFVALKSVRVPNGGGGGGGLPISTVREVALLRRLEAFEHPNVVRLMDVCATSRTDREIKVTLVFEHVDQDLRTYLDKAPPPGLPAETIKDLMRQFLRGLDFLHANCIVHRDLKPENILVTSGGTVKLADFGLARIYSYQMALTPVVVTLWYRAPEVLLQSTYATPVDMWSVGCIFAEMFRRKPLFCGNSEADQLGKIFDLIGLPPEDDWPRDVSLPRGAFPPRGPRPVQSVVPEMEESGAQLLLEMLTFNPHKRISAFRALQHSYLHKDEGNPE

CN(C)C(=O)c1cc2cnc(Nc3ccc(N4CCNCC4)cn3)nc2n1C1CCCC1 [Ribociclib, 7-cyclopentyl-2-(5-piperazin-1-yl-pyridin-2-ylamino)-7H-pyrrolo[2,3-d]pyrimidine-6-carboxylic acid dimethylamide]
affinity for CDK4, lower than that observed for abemaciclib (CDK4): ~10 fold
tumor response (JeKo-1 xenograft; 75 mg/kg): complete tumor regression
tumor response (JeKo-1 xenograft; 150 mg/kg): complete tumor regression
tumor growth inhibition (JeKo-1 xenograft; rat, in vivo): 56%
body weight loss ([1]; 150 mg/kg): only minimal transient body weight loss
tolerability ([1]; all ribociclib doses, no significant body weight loss): well tolerated
area under the concentration-time curve (Pharmacokinetics in mice): ~12,500 ng/mL × h
maximum serum concentration (Pharmacokinetics in mice): ~2700 ng/mL
T/C (HBRX1286): 82
T/C (HBCx-15): 108
T/C (HBRX1600): 28
T/C (Hs 944.T; 150 mg/kg qd): 36
T/C (Hs 944.T; 250 mg/kg qd): 19
T/C (MEL-JUSO; 75 mg/kg qd): 47
T/C (MEL-JUSO; 150 mg/kg qd): 32
T/C (MEL-JUSO; 250 mg/kg qd): 2
T/C (HPAX1317): 32
IC50 (MCF-7): 180 nM
IC50 (T-47d): 250 nM
IC50 (MGH051): 280 nM
IC50 (MGH049): 540 nM
IC50 (NCI-H1792 [2]): 610 nM
IC50 (COR-L105): 1920 nM
IC50 (NCI-H1975): 3530 nM
IC50 (NCI-H2030): 8330 nM
IC50 (NCI-H2228 [3]): > 10000 nM
IC50 (OE33 [4]): 630 nM
IC50 (TE-5 [5]): 2390 nM
IC50 (TE-11): 4410 nM
IC50 (SK-MEL-28): 980 nM
IC50 (hs944T): 1620 nM
IC50 (SK-MEL-5): 2090 nM
IC50 (SK-N-SH): 9000 nM
IC50 (CHP-212): 300 nM
IC50 (BT-483): > 10000 nM
IC50 (NCI-H3122): 2000 nM
IC50 (NCI-H1792 [6]): > 10000 nM
IC50 (HCC-4006): > 10000 nM
IC50 (NCI-H2228 [7]): > 10000 nM
IC50 (OE33 [8]): > 10000 nM
IC50 (TE-5 [9]): > 10000 nM
IC50 (TE-14): > 10000 nM
IC50 (VCAP): > 10000 nM
IC50 (UACC-62): > 10000 nM
activity against CDK1/cyclin B (CDK1/cyclin B): far less active
activity against CDK5/p25 (CDK5/p25): far less active
effect on cell-cycle progression (NCI-H2009): no effect
effect on pRb and cell cycle [10]: dephosphorylation of phosphorylated Rb (pRb) and concomitant G1 cell-cycle arrest
Cmax (in vivo; 10 mg/kg): 110 ng/mL
Cmax (in vivo; 75 mg/kg): 1740 ng/mL
Cmax (in vivo; 150 mg/kg): 1680 ng/mL
